Where a SMILES comes first, the peptide text is derived from it. Bridges are numbered along the chain shown (N, C = ends). [ ]: non-standard residue; d: D form. The star is where a group is joined. hPhe(3-Cl-4-CF3) = N[C@@H](CCc1ccc(C(F)(F)F)c(Cl)c1)C(=O)O; NPrPhe(4-CF3) = CCCN[C@@H](Cc1ccc(C(F)(F)F)cc1)C(=O)O; NMeGly(cPent) = CN[C@H](C(=O)O)C1CCCC1; NMeD = CN[C@@H](CC(=O)O)C(=O)O; NMeL = CN[C@@H](CC(C)C)C(=O)O; Morpholide = C1CN(*)CCO1; Ac5c = NC1(C(=O)O)CCCC1; Aze = O=C(O)[C@@H]1CCN1; Sar = CNCC(=O)O
How the values were obtained:
[1] = biological target: GDP-bound KRAS wild-type protein (Homo sapiens, UniProt P01116); assay: Binding to KRAS by surface plasmon resonance (SPR), dissociation constant KD; conditions: 1:1 binding model
Summary of the method: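 Each cycle, GDP-bound biotin-Avi RAS was captured (~100–300 RU), compound concentrations were injected low to high for 75 s each at 100 µL/min, then the chip was regenerated. Buffer: HBS pH 7.4, 10 mM MgCl2, 10 µM GDP, 1 mM DTT, 4% DMSO; 30°C. KD from a 1:1 binding model.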

[2] = biological target: GDP-bound NRAS wild-type protein (Homo sapiens, UniProt P01111); assay: Binding to NRAS by surface plasmon resonance (SPR), KD and KD ratio to KRAS
Summary of the method: (§1)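 GDP-bound biotin-Avi RAS captured at ~100–300 RU, 30°C, pH 7.4 HBS containing 10 µM GDP, 10 mM MgCl2, 1 mM DTT, 0.01% Tween 20 and 4% DMSO. KD by 1:1 fitting.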

HRAS wild-type protein = HRAS wild-type protein (Homo sapiens, UniProt P01112); assay: Binding to HRAS by surface plasmon resonance (SPR), KD and KD ratio to KRAS
Summary of the method: as §1

[3] = test system: human lung cancer strain NCI-H441; format: cell-based
Summary of the method: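 Readout: […] after the ATP-based reagent. Compound: serial dilutions in dimethyl sulfoxide.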

[4] = ratio of KD for GDP-bound NRAS wild-type protein to KD for KRAS
[5] = ratio of KD for HRAS wild-type protein to KD for KRAS
[6] = ratio of the KD value with respect to GDP-bound NRAS wild-type protein to the KD value with respect to KRAS
[7] = ratio of the KD value with respect to HRAS wild-type protein to the KD value with respect to KRAS

GDP-bound NRAS wild-type protein, sequence (P01111 whole entry): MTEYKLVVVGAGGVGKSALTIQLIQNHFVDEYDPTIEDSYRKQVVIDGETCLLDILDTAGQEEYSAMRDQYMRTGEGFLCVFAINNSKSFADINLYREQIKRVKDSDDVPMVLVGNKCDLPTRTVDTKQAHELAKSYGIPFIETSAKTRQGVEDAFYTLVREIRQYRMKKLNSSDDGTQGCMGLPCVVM
GDP-bound KRAS wild-type protein, sequence (P01116 1-188 isoform P01116-2): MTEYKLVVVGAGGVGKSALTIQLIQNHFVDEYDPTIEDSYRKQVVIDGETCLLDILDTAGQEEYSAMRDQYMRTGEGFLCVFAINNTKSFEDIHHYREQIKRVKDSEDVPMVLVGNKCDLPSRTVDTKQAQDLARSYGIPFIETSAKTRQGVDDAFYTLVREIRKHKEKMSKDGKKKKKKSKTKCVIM
HRAS wild-type protein, sequence (P01112 whole entry): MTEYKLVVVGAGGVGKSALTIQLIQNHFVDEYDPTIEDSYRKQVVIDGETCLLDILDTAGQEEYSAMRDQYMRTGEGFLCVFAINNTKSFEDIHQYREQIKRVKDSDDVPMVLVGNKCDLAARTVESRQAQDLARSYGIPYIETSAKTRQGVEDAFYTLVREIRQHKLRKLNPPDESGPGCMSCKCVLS

Kd [1] [nM] | IC50 [3] [nM] | Kd ([1]; Single Cycle Kinetics) [nM] | Compound | NRAS /KRAS [2, 4] | HRAS /KRAS (HRAS wild-type protein; [5]) | NRAS /KRAS [2, 6] | HRAS /KRAS (HRAS wild-type protein; [7]) | NRAS /KRAS ([2]; ratio of KD value for GDP-bound NRAS wild-type protein to KD value for KRAS (SPR)) | HRAS /KRAS (HRAS wild-type protein; ratio of KD value for HRAS wild-type protein to KD value for KRAS (SPR))
0.35 | 21.1 | – | CCO[C@@H]1C[C@H]2C(=O)NC3(CC(C)(C)C3)C(=O)N(C)[C@@H](C3CCCC3)C(=O)N(C)[C@H](C(=O)N(C)C)CC(=O)N(C)[C@@H]([C@H](C)OC)C(=O)N[C@@H]([C@@H](C)CC)C(=O)N(C3CC3)CC(=O)N(C)[C@H]3C/C=C\CCN(C3=O)[C@@H](Cc3ccc(C)cc3)C(=O)N(C)CC(=O)N[C@@H](CCc3cc(F)c(C(F)(F)F)c(F)c3)C(=O)N2C1 [PP3193] | A (a compound having 10 or more and less than 20 is denoted as A) | A (a compound having 10 or more and less than 20 is denoted as A) | – | – | – | –
– | 32.1 | 0.14 | CC[C@@H]1C[C@H]2C(=O)NC3(CCC3)C(=O)N(C)[C@@H](C3CCCC3)C(=O)N(C)[C@H](C(=O)N(C)C)CC(=O)N(C)[C@@H](CC(C)C)C(=O)N[C@@H]([C@@H](C)CC)C(=O)N(C)CC(=O)N(C)[C@H]3C/C=C\CCN(C3=O)[C@@H](Cc3ccc(C)cc3)C(=O)N(C)CC(=O)N[C@@H](CCc3cc(F)c(C(F)(F)F)c(F)c3)C(=O)N2C1 [PP2220] | – | – | A (a compound having 10 or more and less than 20 is denoted as A) | A (a compound having 10 or more and less than 20 is denoted as A) | – | –
– | 6 | 0.071 | CC[C@H](C)[C@@H]1NC(=O)[C@H](CC(C)C)N(C)C(=O)C[C@@H](C(=O)N(C)C)N(C)C(=O)[C@H](C2CCCC2)N(C)C(=O)C2(CCC2)NC(=O)[C@@H]2C[C@H](C)CN2C(=O)[C@H](CCc2ccc(C(F)(F)F)c(Cl)c2)NC(=O)CN(C)C(=O)[C@H](Cc2ccc(C)cc2)N2CC/C=C\C[C@@H](C2=O)N(C)C(=O)CN(C)C1=O [PP1852] | – | – | – | – | A (a compound having 10 or more and less than 20 is denoted as A) | B (a compound having 3 or more and less than 10 is denoted as B)
– | 6.2 | 0.13 | CCC[C@H]1C(=O)N[C@@H]([C@@H](C)CC)C(=O)N(C)CC(=O)N(C)[C@H]2C/C=C\CCN(C2=O)[C@@H](Cc2ccc(C)cc2)C(=O)N(C)CC(=O)N[C@@H](CCc2ccc(C(F)(F)F)c(Cl)c2)C(=O)N2C[C@H](C)C[C@H]2C(=O)NC2(CC(C)(C)C2)C(=O)N(C)[C@@H](C2CCCC2)C(=O)N(C)[C@H](C(=O)N(C)C)CC(=O)N1C [PP2210] | – | – | A (a compound having 10 or more and less than 20 is denoted as A) | B (a compound having 3 or more and less than 10 is denoted as B) | – | –
– | 41.5 | 0.34 | CCO[C@@H]1C[C@H]2C(=O)NC3(CC(C)(C)C3)C(=O)N(C)[C@@H](C(CC)CC)C(=O)N(C)[C@H](C(=O)N(C)C)CC(=O)N(C)[C@@H](CC(C)C)C(=O)N[C@@H]([C@@H](C)CC)C(=O)N(C)CC(=O)N(C)[C@H]3C/C=C\CCN(C3=O)[C@@H](Cc3ccc(C)cc3)C(=O)N(C)CC(=O)N[C@@H](CCc3ccc(C(F)(F)F)c(Cl)c3)C(=O)N2C1 [PP2148] | – | – | A (a compound having 10 or more and less than 20 is denoted as A) | A (a compound having 10 or more and less than 20 is denoted as A) | – | –
3.4 | 112 | – | CCC[C@H]1C(=O)N[C@@H]([C@@H](C)CC)C(=O)N(C)CC(=O)N(C)[C@H]2C/C=C\CCN(C2=O)[C@@H](Cc2ccc(C)cc2)C(=O)N(C)CC(=O)N[C@@H](CCc2ccc(CC)c(Cl)c2)C(=O)N2C[C@H](OCC)C[C@H]2C(=O)NC2(CC(C)(C)C2)C(=O)N(C)[C@@H](C(CC)CC)C(=O)N(C)[C@H](C(=O)N(C)C)CC(=O)N1C [PP2779] | A (a compound having 10 or more and less than 20 is denoted as A) | A (a compound having 10 or more and less than 20 is denoted as A) | – | – | – | –
– | 52.3 | 0.8 | CCO[C@@H]1C[C@H]2C(=O)NC3(CCC3)C(=O)N(C)[C@@H](C3CCCC3)C(=O)N(C)[C@H](C(=O)N3CCOCC3)CC(=O)N(C)[C@@H](CC3CCCC3)C(=O)N[C@@H]([C@@H](C)CC)C(=O)N(C)CC(=O)N(C)[C@H]3CCCCCN(C3=O)[C@@H](Cc3ccc(C(F)(F)F)cc3)C(=O)N(C)CC(=O)N[C@@H](CCc3cc(F)c(C(F)(F)F)c(F)c3)C(=O)N2C1 [PP0685] | – | – | B (a compound having 3 or more and less than 10 is denoted as B) | B (a compound having 3 or more and less than 10 is denoted as B) | – | –
14 | 311 | – | CCC[C@H]1C(=O)N[C@@H]([C@@H](C)CC)C(=O)N(C)CC(=O)N(C)[C@H]2C/C=C\CCN(C2=O)[C@@H](Cc2ccc(C)cc2)C(=O)N(C)CC(=O)N[C@@H](CCc2ccc3ccn(C)c3c2)C(=O)N2C[C@H](OCC)C[C@H]2C(=O)NC2(CC(C)(C)C2)C(=O)N(C)[C@@H](C(CC)CC)C(=O)N(C)[C@H](C(=O)N(C)C)CC(=O)N1C [PP2914] | AA (a compound having 20 or more is denoted as AA) | A (a compound having 10 or more and less than 20 is denoted as A) | – | – | – | –
0.12 | 3.5 | – | CCC[C@H]1C(=O)N[C@@H]([C@@H](C)CC)C(=O)N(C)CC(=O)N(C)[C@H]2C/C=C\CCN(C2=O)[C@@H](Cc2ccc(C)cc2)C(=O)N(C)CC(=O)N[C@@H](CCc2cc(Cl)c3sccc3c2)C(=O)N2C[C@H](OCC)C[C@H]2C(=O)NC2(CC(C)(C)C2)C(=O)N(C)[C@@H](C2CCCC2)C(=O)N(C)[C@H](C(=O)N(C)C)CC(=O)N1C [PP2947] | B (a compound having 3 or more and less than 10 is denoted as B) | B (a compound having 3 or more and less than 10 is denoted as B) | – | – | – | –
2.1 | 205 | – | CCCN1C(=O)CN(C)C(=O)[C@@H]2CCN2C(=O)[C@H]([C@@H](C)CC)NC(=O)[C@H](CC(C)C)N(C)C(=O)C[C@@H](C(=O)N2CCOCC2)N(C)C(=O)[C@H](C2CCCC2)N(C)C(=O)C2(CCCC2)NC(=O)[C@@H]2CCN2C(=O)[C@H](CCc2ccc(C(F)(F)F)c(Cl)c2)NC(=O)CN(C)C(=O)[C@@H]1Cc1ccc(C(F)(F)F)cc1 [PP0307] ([NMeL]I[Aze][Sar][NPrPhe(4-CF3)][Sar][hPhe(3-Cl-4-CF3)][Aze][Ac5c][NMeGly(cPent)][NMeD]-Morpholide; lactam N-11) | B (a compound having 3 or more and less than 10 is denoted as B) | B (a compound having 3 or more and less than 10 is denoted as B) | – | – | – | –
– | 14 | 0.11 | CCCOC[C@H]1C(=O)N[C@@H]([C@@H](C)CC)C(=O)N(C)CC(=O)N(C)[C@H]2C/C=C\CCN(C2=O)[C@@H](Cc2ccc(C(F)(F)F)cc2)C(=O)N(C)CC(=O)N[C@@H](CCc2ccc(C(F)(F)F)c(OC)c2)C(=O)N2C[C@@H](C)C[C@H]2C(=O)NC2(CCC2)C(=O)N(C)[C@@H](C2CCCC2)C(=O)N(C)[C@H](C(=O)N(C)CC)CC(=O)N1C [PP2027] | – | – | A (a compound having 10 or more and less than 20 is denoted as A) | B (a compound having 3 or more and less than 10 is denoted as B) | – | –
0.66 | 53.6 | – | CCC[C@H]1C(=O)N[C@@H](C2CCOCC2)C(=O)N(C)CC(=O)N(C)[C@H]2C/C=C\CCN(C2=O)[C@@H](Cc2ccc(C)cc2)C(=O)N(C)CC(=O)N[C@@H](CCc2ccc(C(F)(F)F)c(Cl)c2)C(=O)N2C[C@H](OCC)C[C@H]2C(=O)NC2(CC(C)(C)C2)C(=O)N(C)[C@@H](CC(C)(C)C)C(=O)N(C)[C@H](C(=O)N(C)C)CC(=O)N1C [PP3026] | A (a compound having 10 or more and less than 20 is denoted as A) | A (a compound having 10 or more and less than 20 is denoted as A) | – | – | – | –
